Tested on: participants with SSc-RP
Test: Scleroderma Health Assessment Questionnaire (SHAQ): disability indices and visual analog scales
Type: in vivo, human
Procedure, shortened: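 Participants with SSc-RP completed the SHAQ at screening and each in-clinic visit. Standard and alternative disability indices (eight categories, 0–3; standard adjusts for aids/assistance) plus Raynaud's VAS on interference over the past 7 days. Reported as absolute change from baseline to end of each dosing period.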

[1] = Cilnidipine 10 mg, Day 12, PP Population Part A, SSc patients
[2] = Cilnidipine 10 mg, Day 12, PP Population, Part A
[3] = Cilnidipine 10 mg, PP Population Part A, SSc patients
[4] = Cilnidipine 20 mg (N = 3), Modified ITT, Part A
[5] = Cilnidipine 20 mg (N = 3), patients with diagnosis of SSc, sensitivity analysis, Modified ITT, Part A
[6] = Cilnidipine 20 mg (n = 3), Table R
[7] = Cilnidipine 20 mg (n = 3), mITT population
[8] = Cilnidipine 20 mg, Day 12, PP Population Part A, SSc patients
[9] = Cilnidipine 20 mg, Day 12, PP Population, Part A
[10] = Cilnidipine 20 mg, PP Population Part A, SSc patients

COCCOC(=O)C1=C(C)NC(C)=C(C(=O)OC/C=C/c2ccccc2)C1c1cccc([N+](=O)[O-])c1 (stereo not drawn) [Cilnidipine, cilnidipine]
SHAQ Visual Analogue Scale - Finger Ulcers, Change from Baseline, Mean [1]: −0.425
SHAQ Visual Analogue Scale - Finger Ulcers, Change from Baseline, Median [1]: −0.350
SHAQ Visual Analogue Scale - Finger Ulcers, Percent Change from Baseline, Mean [1]: −69.44%
SHAQ Visual Analogue Scale - Finger Ulcers, Percent Change from Baseline, Median [1]: −69.44%
SHAQ Visual Analogue Scale - Intestinal Problems, Change from Baseline, Mean [1]: −1.875
SHAQ Visual Analogue Scale - Intestinal Problems, Change from Baseline, Median [1]: −1.550
SHAQ Visual Analogue Scale - Intestinal Problems, Percent Change from Baseline, Mean [1]: −77.37%
SHAQ Visual Analogue Scale - Intestinal Problems, Percent Change from Baseline, Median [1]: −88.00%
SHAQ Visual Analogue Scale - Overall Disease Severity, Change from Baseline, Mean [1]: −0.900
SHAQ Visual Analogue Scale - Overall Disease Severity, Change from Baseline, Median [1]: −0.950
SHAQ Visual Analogue Scale - Overall Disease Severity, Percent Change from Baseline, Mean [1]: −56.96%
SHAQ Visual Analogue Scale - Overall Disease Severity, Percent Change from Baseline, Median [1]: −44.12%
SHAQ Visual Analogue Scale - Pain, Change from Baseline, Mean [1]: −0.100
SHAQ Visual Analogue Scale - Pain, Change from Baseline, Median [1]: 0.000
SHAQ Visual Analogue Scale - Pain, Percent Change from Baseline, Mean [1]: −9.88%
SHAQ Visual Analogue Scale - Pain, Percent Change from Baseline, Median [1]: 0.00%
SHAQ Visual Analogue Scale - Raynaud's, Change from Baseline, Mean [1]: 0.325
SHAQ Visual Analogue Scale - Raynaud's, Change from Baseline, Median [1]: 0.350
SHAQ Visual Analogue Scale - Raynaud's, Percent Change from Baseline, Mean [1]: 11.36%
SHAQ Visual Analogue Scale - Raynaud's, Percent Change from Baseline, Median [1]: −2.27%
SHAQ Alternative Disability Index: Change from Baseline, Mean [2]: 0.063
SHAQ Alternative Disability Index: Change from Baseline, Median [2]: 0.000
SHAQ Alternative Disability Index: In-Clinic Visit (Day 12), Mean [2]: 0.563
SHAQ Alternative Disability Index: In-Clinic Visit (Day 12), Median [2]: 0.500
SHAQ Alternative Disability Index: Percent Change from Baseline, Mean [2]: 15.87%
SHAQ Alternative Disability Index: Percent Change from Baseline, Median [2]: 15.87%
SHAQ Standard Disability Index: Change from Baseline, Mean [2]: 0.000
SHAQ Standard Disability Index: Change from Baseline, Median [2]: 0.000
SHAQ Standard Disability Index: In-Clinic Visit (Day 12), Mean [2]: 0.656
SHAQ Standard Disability Index: In-Clinic Visit (Day 12), Median [2]: 0.563
SHAQ Standard Disability Index: Percent Change from Baseline, Mean [2]: 0.00%
SHAQ Standard Disability Index: Percent Change from Baseline, Median [2]: 0.00%
SHAQ Visual Analogue Scale - Pain: Change from Baseline, Mean [2]: −0.100
SHAQ Visual Analogue Scale - Pain: Change from Baseline, Median [2]: 0.000
SHAQ Visual Analogue Scale - Pain: In-Clinic Visit (Day 12), Mean [2]: 1.875
SHAQ Visual Analogue Scale - Pain: In-Clinic Visit (Day 12), Median [2]: 1.950
SHAQ Visual Analogue Scale - Pain: Percent Change from Baseline, Mean [2]: −9.88%
SHAQ Visual Analogue Scale - Pain: Percent Change from Baseline, Median [2]: 0.00%
SHAQ Visual Analogue Scale - Breathing Problems, In-Clinic Visit (Day 12), Mean [3]: 1.575
SHAQ Visual Analogue Scale - Breathing Problems, In-Clinic Visit (Day 12), Median [3]: 0.000
SHAQ Visual Analogue Scale - Finger Ulcers, In-Clinic Visit (Day 12), Mean [3]: 0.275
SHAQ Visual Analogue Scale - Finger Ulcers, In-Clinic Visit (Day 12), Median [3]: 0.000
SHAQ Visual Analogue Scale - Intestinal Problems, In-Clinic Visit (Day 12), Mean [3]: 1.100
SHAQ Visual Analogue Scale - Intestinal Problems, In-Clinic Visit (Day 12), Median [3]: 0.300
SHAQ Visual Analogue Scale - Overall Disease Severity, In-Clinic Visit (Day 12), Mean [3]: 1.825
SHAQ Visual Analogue Scale - Overall Disease Severity, In-Clinic Visit (Day 12), Median [3]: 1.050
SHAQ Visual Analogue Scale - Pain, In-Clinic Visit (Day 12), Mean [3]: 1.875
SHAQ Visual Analogue Scale - Pain, In-Clinic Visit (Day 12), Median [3]: 1.950
SHAQ Visual Analogue Scale - Raynaud's, In-Clinic Visit (Day 12), Mean [3]: 1.925
SHAQ Visual Analogue Scale - Raynaud's, In-Clinic Visit (Day 12), Median [3]: 1.700
SHAQ Overall Severity: Baseline, Mean [4]: 2.667
SHAQ Overall Severity: Baseline, Median [4]: 2.900
SHAQ Overall Severity: Change from Baseline, Mean [4]: −1.633,
SHAQ Overall Severity: Change from Baseline, Median [4]: −1.600
SHAQ Overall Severity: Day 12, Mean [4]: 1.033
SHAQ Overall Severity: Day 12, Median [4]: 1.200
SHAQ Overall Severity: Percent Change from Baseline, Mean [4]: −62.64%
SHAQ Overall Severity: Percent Change from Baseline, Median [4]: −60.00%
SHAQ Standard Disability Index: Baseline, Mean [5]: 0.250
SHAQ Standard Disability Index: Baseline, Median [5]: 0.375
SHAQ Standard Disability Index: Change from Baseline, Mean [5]: −0.125
SHAQ Standard Disability Index: Change from Baseline, Median [5]: −0.125
SHAQ Standard Disability Index: Day 12, Mean [5]: 0.125
SHAQ Standard Disability Index: Day 12, Median [5]: 0.125
SHAQ Standard Disability Index: Percent Change from Baseline, Mean [5]: −50.00%
SHAQ Standard Disability Index: Percent Change from Baseline, Median [5]: −50.00%
Alternative disability index, improvement [6]: 42% improvement
Standard disability index, improvement [6]: 50% improvement
VAS - Breathing problems, improvement [6]: 75% improvement*
VAS - Raynaud's, improvement [6]: 55% improvement
VAS Overall Disease Severity, improvement [6]: 63% improvement
VAS- PAIN, improvement (Cilnidipine 20 mg (n = 3), Table R, baseline 2.17 on a 0-10 VAS): 53% improvement*
SHAQ % change VAS Raynauds [7]: −49%
SHAQ % change in Alternative Disability Index [7]: −42%
SHAQ % change in Pain [7]: −53%
SHAQ % change in Standard Disability Index [7]: −50%
SHAQ % change overall SSc Disease Severity [7]: −63%
SHAQ % improvement in Breathing (median) [7]: 67%
SHAQ % improvement in VAS Digital Ulcers [7]: 35%
SHAQ Visual Analogue Scale - Breathing Problems, Change from Baseline, Mean [8]: −0.475
SHAQ Visual Analogue Scale - Breathing Problems, Change from Baseline, Median [8]: −0.250
SHAQ Visual Analogue Scale - Breathing Problems, Percent Change from Baseline, Mean [8]: 3.73%
SHAQ Visual Analogue Scale - Breathing Problems, Percent Change from Baseline, Median [8]: −17.54%
SHAQ Visual Analogue Scale - Finger Ulcers, Change from Baseline, Mean [8]: −0.933
SHAQ Visual Analogue Scale - Finger Ulcers, Change from Baseline, Median [8]: 0.000
SHAQ Visual Analogue Scale - Finger Ulcers, Percent Change from Baseline, Mean [8]: 35.29%
SHAQ Visual Analogue Scale - Finger Ulcers, Percent Change from Baseline, Median [8]: 35.29%
SHAQ Visual Analogue Scale - Intestinal Problems, Change from Baseline, Mean [8]: 0.150
SHAQ Visual Analogue Scale - Intestinal Problems, Change from Baseline, Median [8]: 0.150
SHAQ Visual Analogue Scale - Intestinal Problems, Percent Change from Baseline, Mean [8]: −10.00%
SHAQ Visual Analogue Scale - Intestinal Problems, Percent Change from Baseline, Median [8]: 30.00%
SHAQ Visual Analogue Scale - Overall Disease Severity, Change from Baseline, Mean [8]: −2.000
SHAQ Visual Analogue Scale - Overall Disease Severity, Change from Baseline, Median [8]: −1.700
SHAQ Visual Analogue Scale - Overall Disease Severity, Percent Change from Baseline, Mean [8]: −64.20%
SHAQ Visual Analogue Scale - Overall Disease Severity, Percent Change from Baseline, Median [8]: −64.44%
SHAQ Visual Analogue Scale - Pain, Change from Baseline, Mean [8]: −0.650
SHAQ Visual Analogue Scale - Pain, Change from Baseline, Median [8]: −0.650
SHAQ Visual Analogue Scale - Pain, Percent Change from Baseline, Mean [8]: −34.56%
SHAQ Visual Analogue Scale - Pain, Percent Change from Baseline, Median [8]: −51.06%
SHAQ Visual Analogue Scale - Raynaud's, Change from Baseline, Mean [8]: −1.200
SHAQ Visual Analogue Scale - Raynaud's, Change from Baseline, Median [8]: −1.050
SHAQ Visual Analogue Scale - Raynaud's, Percent Change from Baseline, Mean [8]: −41.11%
SHAQ Visual Analogue Scale - Raynaud's, Percent Change from Baseline, Median [8]: −38.67%
SHAQ Alternative Disability Index: Change from Baseline, Mean [9]: 0.000
SHAQ Alternative Disability Index: Change from Baseline, Median [9]: −0.063
SHAQ Alternative Disability Index: In-Clinic Visit (Day 12), Mean [9]: 0.219
SHAQ Alternative Disability Index: In-Clinic Visit (Day 12), Median [9]: 0.188
SHAQ Alternative Disability Index: Percent Change from Baseline, Mean [9]: 5.56%
SHAQ Alternative Disability Index: Percent Change from Baseline, Median [9]: −33.33%
SHAQ Standard Disability Index: Change from Baseline, Mean [9]: −0.063
SHAQ Standard Disability Index: Change from Baseline, Median [9]: −0.063
SHAQ Standard Disability Index: In-Clinic Visit (Day 12), Mean [9]: 0.281
SHAQ Standard Disability Index: In-Clinic Visit (Day 12), Median [9]: 0.188
SHAQ Standard Disability Index: Percent Change from Baseline, Mean [9]: −26.67%
SHAQ Standard Disability Index: Percent Change from Baseline, Median [9]: −33.33%
SHAQ Visual Analogue Scale - Pain: Change from Baseline, Mean [9]: −0.650
SHAQ Visual Analogue Scale - Pain: Change from Baseline, Median [9]: −0.650
SHAQ Visual Analogue Scale - Pain: In-Clinic Visit (Day 12), Mean [9]: 1.875
SHAQ Visual Analogue Scale - Pain: In-Clinic Visit (Day 12), Median [9]: 1.400
SHAQ Visual Analogue Scale - Pain: Percent Change from Baseline, Mean [9]: −34.56%
SHAQ Visual Analogue Scale - Pain: Percent Change from Baseline, Median [9]: −51.06%
SHAQ Visual Analogue Scale - Breathing Problems, In-Clinic Visit (Day 12), Mean [10]: 0.850
SHAQ Visual Analogue Scale - Breathing Problems, In-Clinic Visit (Day 12), Median [10]: 0.450

— patent US20240358693A1, “METHODS OF TREATING PAIN” (Aisa Pharma, Inc., priority 2023, published 2024)
